In publication PMC6476959, “Novel 3,4-Dihydroisocoumarins Inhibit Human P-gp and BCRP in Multidrug Resistant Tumors and Demonstrate Substrate Inhibition of Yeast Pdr5” (Frontiers in Pharmacology, 2019):
Entries after “also recorded” stand apart in the source; their conditions may differ.

Tests used:
Pdr5 [1] = biological target: T1, Pdr5 (Saccharomyces cerevisiae, UniProt P33302); assay: Pdr5 transport assay (R6G) in plasma membrane preparations; type: biochemical; design: R6G transport activity of Pdr5 WT inhibited to (initial screen): dose or concentration left out as unconfirmed; conditions: for R6G transport activity of Pdr5 WT inhibited to (initial screen): relative to Pdr5 WT without compound
T1 construct: effect on (A) the transport activity of Pdr5 WT and (B) their effect on the ATPase activity; made in house; host or cells: S. cerevisiae YRE1001 (pdr1-3 background), isolated plasma membranes
T1 sequence (P33302 whole entry): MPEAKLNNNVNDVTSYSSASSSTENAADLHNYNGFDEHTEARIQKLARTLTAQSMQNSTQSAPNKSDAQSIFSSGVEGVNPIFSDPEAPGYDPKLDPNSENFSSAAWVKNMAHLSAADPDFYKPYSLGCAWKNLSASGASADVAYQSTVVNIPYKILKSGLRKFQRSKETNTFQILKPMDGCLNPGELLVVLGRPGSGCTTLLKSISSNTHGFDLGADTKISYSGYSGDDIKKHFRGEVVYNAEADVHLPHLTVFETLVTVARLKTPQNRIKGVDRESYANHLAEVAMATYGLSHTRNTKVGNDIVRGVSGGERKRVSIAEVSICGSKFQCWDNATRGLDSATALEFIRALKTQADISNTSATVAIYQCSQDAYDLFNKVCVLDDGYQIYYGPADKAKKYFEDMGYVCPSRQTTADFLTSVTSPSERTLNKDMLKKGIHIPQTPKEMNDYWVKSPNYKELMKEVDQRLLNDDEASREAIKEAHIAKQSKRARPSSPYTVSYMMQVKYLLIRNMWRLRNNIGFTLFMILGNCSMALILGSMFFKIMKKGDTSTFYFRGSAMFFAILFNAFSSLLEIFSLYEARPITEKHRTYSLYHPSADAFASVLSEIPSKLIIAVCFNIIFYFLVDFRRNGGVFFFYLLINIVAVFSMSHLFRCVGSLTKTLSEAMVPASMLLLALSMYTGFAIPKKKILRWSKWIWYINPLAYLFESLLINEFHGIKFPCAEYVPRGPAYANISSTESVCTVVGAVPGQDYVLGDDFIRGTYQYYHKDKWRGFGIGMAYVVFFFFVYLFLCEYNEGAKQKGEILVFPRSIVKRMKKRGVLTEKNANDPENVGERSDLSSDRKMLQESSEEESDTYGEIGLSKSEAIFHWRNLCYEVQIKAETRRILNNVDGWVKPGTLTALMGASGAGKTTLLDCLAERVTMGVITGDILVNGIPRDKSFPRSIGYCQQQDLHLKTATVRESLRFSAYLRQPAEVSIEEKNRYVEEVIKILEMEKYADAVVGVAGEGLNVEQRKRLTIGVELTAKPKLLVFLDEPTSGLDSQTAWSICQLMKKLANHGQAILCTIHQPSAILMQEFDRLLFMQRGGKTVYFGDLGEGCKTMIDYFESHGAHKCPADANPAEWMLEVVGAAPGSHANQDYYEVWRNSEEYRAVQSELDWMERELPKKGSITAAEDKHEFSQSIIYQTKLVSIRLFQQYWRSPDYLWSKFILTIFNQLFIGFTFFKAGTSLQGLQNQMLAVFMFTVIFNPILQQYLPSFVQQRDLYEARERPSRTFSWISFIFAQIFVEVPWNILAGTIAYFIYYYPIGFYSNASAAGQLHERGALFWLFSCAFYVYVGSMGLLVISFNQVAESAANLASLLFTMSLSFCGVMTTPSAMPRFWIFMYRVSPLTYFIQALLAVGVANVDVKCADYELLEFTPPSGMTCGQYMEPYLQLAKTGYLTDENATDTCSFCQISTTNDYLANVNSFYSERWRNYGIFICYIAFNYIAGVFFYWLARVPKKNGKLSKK
Experimental: (§1) Saccharomyces cerevisiae cells expressing Pdr5 WT or the E1036Q (EQ) mutant were cultured to an OD600 of 1.5 in YPD-media at 25°C. The nitrogen source was replenished by addition of a 10th volume of 5x YP (50 g/l yeast extract, 100 g/l peptone). The cells were grown to an OD of 3.5 and harvested (5000 ×g at 4°C for 15 min). The isolation of Pdr5 containing PMs was performed as described ([Kolaczkowski et al., 1996]; [Ernst et al., 2008]).
Active transport of R6G was measured according to the protocol developed by [Kolaczkowski et al. (1996)], using a Tecan Infinite 200 pro reader (Tecan Group AG, Männedorf, Switzerland). 6 μg of the isolated PM containing Pdr5 were resuspended in 200 μl of the transport buffer (50 mM HEPES, pH 7.0, 5 mM MgCl2, 10 mM NaN3, and 150 nM R6G) and incubated in a black 96-well plate at 30°C. 5 μl of the test compound were added at the indicated concentrations. Active transport was initiated by the addition of 10 μl 200 mM ATP and fluorescence intensity was recorded in 15 s-intervals for 20 min (excitation wavelength at 524 nm, emission wavelength at 558 nm, number of flashes 30, integration time 2000 μs). IC50 determination was performed with a serial dilution of the test compounds.

Pdr5 [2] = biological target: T1, Pdr5; assay: Pdr5 ATPase assay (oligomycin-sensitive) in plasma membrane preparations; type: biochemical; conditions: highest concentrations (10 mM), in comparison to Pdr5 WT in the absence of any compound
Experimental: as §1
Oligomycin (OM)-sensitive ATPase activity was measured from 0.8 μg PM containing Pdr5 incubated with 2 mM ATP, 5 mM MgCl2 in 270 mM TRIS-glycine buffer (pH 9.5) and 2.5 μl of the test compounds or DMSO as a control in a total volume of 100 μl. To reduce the background activities, 0.2 mM ammonium molybdate, 10 mM NaN3 and 50 mM KNO3, respectively, were added ([Dufour et al., 1988]; [Goffeau and Dufour, 1988]). In a second assay, OM (20 μg/ml) was added to an otherwise identical setup. After incubation at 30°C for 20 min, the reaction was stopped by adding 25 μl of the reaction to 175 μl 40 mM H2SO4. The amount of released inorganic phosphate was determined by a colometric assay in 96-well plates ([Goffeau and Dufour, 1988]; [Decottignies et al., 1994]; [Wada et al., 2002]). The difference of both assays ( ± OM) corresponds to the specific ATPase activity of Pdr5 ([Ernst et al., 2008]).

MCF-7/MX cells = assay: CellTiter-Glo cell viability assay (cytotoxicity), MCF-7/MX; type: cell-based; conditions: Homo sapiens, MCF7/MX; 48 h, BCRP-expressing, mean ± SEM
Experimental: The human lung adenocarcinoma cell line A549 was cultured in DMEM medium supplemented with 10% fetal bovine serum (FBS), 100 U/mL penicillin and 100 μg/mL streptomycin. P-gp-expressing human colon adenocarcinoma cells HCT-15 were cultured in RPMI 1640 medium supplemented with 10% FBS, 100 U/mL penicillin and 100 μg/mL streptomycin. BCRP-expressing MCF-7/MX human breast adenocarcinoma cells were cultured in DMEM medium supplemented with 10% FBS, 100 U/mL penicillin and 100 μg/mL streptomycin. MRP1-expressing H69AR human small cell lung cancer cells were cultured in RPMI 1640 medium (ATCC modification) supplemented with 20% FBS, 100 U/mL penicillin and 100 μg/mL streptomycin. All cancer cell lines employed have been systematically characterized regarding their respective ABC transporter expression profile ([Sachs et al., 2019]).
(§2) Cytotoxic activity of test compounds was analyzed after 48 h using the CellTiter-Glo Luminescent Cell Viability Assay published previously ([Weber et al., 2017]) in 384-well plates with the following cell densities: A549, MCF-7/MX: 2 × 10^3 cells/well; HCT-15: 3 × 10^3 cells/well; H69AR: 5 × 10^3 cells/well. Pipetting was conducted with the CyBi-Well 96-channel simultaneous pipettor (Analytik Jena AG, Jena, Germany). For generation of dose-response curves and calculation of IC50 values, the four-parameter logistic model was applied.

[3] = tested on: BCRP-expressing MCF-7/MX cells; assay: Sensitization of MCF-7/MX cells to mitoxantrone (co-treatment, cell viability); type: cell-based, human; conditions: for Fold change of mitoxantrone IC50: IC50 (drug alone)/IC50 (drug with modulator)
Experimental: as §2
(§3) The ability of identified inhibitors of P-gp and BCRP to sensitize HCT-15 or MCF-7/MX cells to chemotherapy was analyzed by co-treatment with test compounds and doxorubicin or mitoxantrone, respectively. Cells were incubated with a serial dilution of the chemotherapeutic drug alone or in combination with fixed concentrations of the test compounds or positive controls (2.5 μM PSC833 and 1 μM Ko143, respectively). Fold change of drug IC50 was calculated with the formula IC50 (drug alone)/IC50 (drug with modulator).

[4] = tested on: P-gp expressing HCT-15 cells; assay: Sensitization of HCT-15 cells to doxorubicin (co-treatment, cell viability); type: cell-based, human; conditions: for Fold change of doxorubicin IC50: IC50 (drug alone)/IC50 (drug with modulator)
Experimental: as §2, §3

[5] = tested on: S. cerevisiae strain expressing Pdr5 EQ; assay: Liquid drug assay, yeast strain expressing Pdr5 EQ mutant; type: cell-based, Saccharomyces cerevisiae; conditions: serial dilutions, 48 h, 30°C, OD600
Experimental: The following S. cerevisiae yeast strain was used: YRE1001 (MATa ura3-52 trp1-1 leu2-3,112 his3-11,15 ade2-1 pdr1-3 pdr5pdr5promΔ::TRP1). S. cerevisiae was cultured in YPD medium (10 g/L yeast extract, 20 g/L peptone, 2% glucose) at 30°C and 200 rpm. The yeast strain has been described previously ([Ernst et al., 2008]; [Gupta et al., 2014]). Based on these studies it is evident that Pdr5 localizes to the PM and is present in approximately 10% of the overall membrane protein content of the PM.
The liquid drug assay was carried out in sterile 96-well plates. 50 μl of yeast cell culture at an OD600 of 0.15 were mixed with 193.75 μl YPD and 6.25 μl of the test compound or DMSO as a negative control. To distinguish between cytotoxic compounds and those which inhibit Pdr5 WT specifically, the Pdr5 substrate ketoconazole was added only to cultures expressing wild-type Pdr5 in a final concentration of 1 μg/ml. At this concentration, inhibition of Pdr5 would result in ketoconazole-mediated cell death. After 48 h at 30°C the growth was measured with an ELISA plate reader (BioRad, Hercules, CA, United States) at 595 nm.

| SMILES | R6G transport activity of Pdr5 WT inhibited to (initial screen) (Pdr5 [1]; listed as 4) | R6G transport activity of Pdr5 WT inhibited to (initial screen) (Pdr5 [1]; listed as angelicoin B (4)) | ATPase activity of Pdr5 WT inhibited to (initial screen) (Pdr5 [2]; listed as 4) | ATPase activity of Pdr5 WT inhibited to (initial screen) (Pdr5 [2]; listed as angelicoin (4)) | ATPase activity of Pdr5 WT inhibited to (initial screen) (Pdr5 [2]; listed as angelicoin B (4)) | IC50 (MCF-7/MX cells) | Sensitization of MCF-7/MX cells to mitoxantrone (in words) [3] | Fold change of mitoxantrone IC50 ([3]; +10 μM of the modulator) | Fold change of mitoxantrone IC50 ([3]; +20 μM of the modulator) | Fold change of mitoxantrone IC50 ([3]; +50 μM of the modulator) | R6G transport activity of Pdr5 WT inhibited to (initial screen) (Pdr5 [1]) | ATPase activity of Pdr5 WT inhibited to (initial screen) (Pdr5 [2]) | Sensitization of HCT-15 cells to doxorubicin (in words) [4] | Fold change of doxorubicin IC50 ([4]; +20 μM of the modulator) | Fold change of doxorubicin IC50 ([4]; +50 μM of the modulator) | IC50 (Pdr5 [1]) | Effect on growth of yeast strain expressing Pdr5 EQ mutant [5] |
| --- | --- | --- | --- | --- | --- | --- | --- | --- | --- | --- | --- | --- | --- | --- | --- | --- | --- |
| COc1cc(O)c2c(c1)C[C@H](C)OC2=O [Angelicoin B (4), angelicoin B] | no effect | did not interfere with Pdr5-mediated R6G transport | nearly no effect | no effect | no inhibitory effect | > 100 µM |  |  |  |  |  |  |  |  |  |  |  |
| COc1cc(O)c2c(c1)CCOC2=O [Compound 14] |  |  |  |  |  | > 100 µM | did not have a significant influence | 1.01 | 0.77 | 0.78 | did not interfere with Pdr5-mediated R6G transport; also recorded: no effect | nearly no effect; also recorded: no inhibitory effect | did not sensitize the cells to doxorubicin | 0.89 | 0.80 |  |  |
| CCCCCC1Cc2cc(OC)cc(O)c2C(=O)O1 (stereo not shown) [Compound 16] |  |  |  |  |  | > 100 µM |  | 0.93 | 3.70 | 5.6 | inhibit the transport of R6G completely; also recorded: inhibit the transport activity of Pdr5 WT completely |  |  | 0.98 | 3.7 | 15.1 ± 2.1 µM |  |
| CCCCCC1Cc2cc(OC)cc(OC)c2C(=O)O1 (stereo not shown) [Compound 16a] |  |  |  |  |  | 10.6 ± 0.9 µM |  |  |  |  | inhibit the transport of R6G completely; also recorded: inhibit the transport activity of Pdr5 WT completely |  |  |  |  | 14.6 ± 3.9 µM | inhibited the growth of the mutant strain slightly at the highest tested concentration |
